In ChEMBL document CHEMBL1268873, “Nitrile-containing pharmaceuticals: efficacious roles of the nitrile pharmacophore” (J Med Chem, 2010) one finds IC50 and IC5 data, which are given here for seven compounds.

In brackets after ≈: the same amount, converted by molar mass.

One assay has as its system L1210. Briefly: Cytotoxicity against mouse L1210 cells. Format: functional, cell-based. The settings on record: for IC50: Mus musculus, L1210.
The next assay has as its system KB. As to the kind of experiment: Cytotoxicity against human KB cells. The assay is classed as functional, cell-based.
A short description of assay [1]: Inhibition of HIV RT. Also on record: species or system Human immunodeficiency virus.

As usually defined, the IC50 is the concentration that inhibits the measured activity by half. Higher therefore signals weaker potency. In the case of `COc1cc([C@@H]2c3cc4c(cc3[C@@H](O[C@@H]3O[C@@H]5CO[C@H](C)O[C@H]5[C@H](O)[C@H]3O)[C@H]3COCC23)OCO4)cc(OC)c1OC` (stereo not given in full), the IC50 came to 0.155 µg/mL (≈ 0.263 µM) in the assay with L1210 and 0.308 µg/mL (≈ 0.523 µM) with KB. As to `COc1cc([C@@H]2c3cc4c(cc3[C@@H](C#N)[C@H]3COCC23)OCO4)cc(OC)c1OC` (stereo not given in full), the IC5 with L1210 stood at 3.48 ng/mL. The same compound registered an IC50 with KB of 0.155 µg/mL (≈ 0.379 µM).

Regarding `COc1cc([C@@H]2c3cc4c(cc3[C@@H](C(=O)O)[C@H]3COCC23)OCO4)cc(OC)c1OC` (stereo not given in full), the IC50 in the assay with L1210 came to 0.164 µg/mL (≈ 0.383 µM); in the assay with KB, 10 µg/mL (≈ 23.3 µM). `Cc1c(Oc2cc(Cl)cc(Cl)c2)c(C(C)C)nn1CCO` gave an IC50 in assay [1] of 560 nM. For `CCc1nn(CCO)c(CC)c1Oc1cccc(C#N)c1`, the IC50 in assay [1] amounted to 350 nM. The same measure, in the same setting: the value for `CC(C)c1nc(COC(N)=O)n(Cc2ccncc2)c1Sc1cc(Cl)cc(Cl)c1` [CAPRAVIRINE] was 93 nM; that for `CCc1nn(CCO)c(CC)c1Oc1cc(C#N)cc(C#N)c1` [LERSIVIRINE] was 119 nM.
